This is an account of results in PubChem BioAssay (NCI).

Some test systems named below: OVCAR-3 ovarian; RXF 393 renal; SN12C renal; SR leukemia; SW-620 colon; TK-10 renal; U251 CNS; SK-MEL-2 melanoma; BT-549 breast; MCF7 breast.
Holding throughout (assay): DTP human tumour cell line panel, 48 h

Values joined by “and” are separate entries in the source; they are usually repeats but may differ in a detail not shown here. Equal values may be shown once.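 48-hour exposure; five concentrations; linearly interpolated endpoints. At the GI50, growth is halved. TGI: concentration producing complete growth inhibition.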

With `CN1N=CSC12C(=O)N(c1ccc(Cl)cc1)C(=O)N2c1ccc(Cl)cc1` (configuration not stated), the TGI in the test with OVCAR-3 ovarian was 4.54 µM; in the test with RXF 393 renal, 36.1 µM; in the test with SN12C renal, > 100 µM; in the test with SR leukemia it was > 100 µM; in the test on SW-620 colon, > 100 µM; with TK-10 renal, 81.1 µM. The compound further returned a TGI in the test with U251 CNS of 53.6 µM.
In the case of `O=C(Nc1c(O)[nH]c(=S)[nH]c1=O)c1ccccc1F`, the TGI with OVCAR-3 ovarian, with SK-MEL-2 melanoma, in the test with SN12C renal, in the test with SR leukemia, in the test with SW-620 colon and in the test on TK-10 renal was > 100 µM each time. Further, the TGI with U251 CNS was > 100 µM.
Turning to `Cc1ccc(NC(=O)c2cc3cc(N=Nc4ccc(Br)cc4)ccc3oc2=O)cc1`, the TGI in the test on RXF 393 renal, in the test with SK-MEL-2 melanoma, in the test with SN12C renal, with SR leukemia, with SW-620 colon and in the test on TK-10 renal was > 100 µM each time. In addition, the TGI in the test with U251 CNS was > 100 µM.
As to `Cc1cn(Cc2ccccc2CCO)c(=S)[nH]c1=O`, the concentration for total growth inhibition (TGI) in the test on OVCAR-3 ovarian, in the test with RXF 393 renal, in the test on SK-MEL-2 melanoma, in the test on SN12C renal, in the test with SW-620 colon and in the test on TK-10 renal was > 100 µM in each case. Besides, the TGI in the test with U251 CNS was > 100 µM.
Take `COc1ccc(C2CC(=O)c3c(O)cc(O)cc3O2)cc1O` (configuration not stated): the TGI in the test with OVCAR-3 ovarian, in the test with SK-MEL-2 melanoma, with SN12C renal, in the test on SW-620 colon, in the test on TK-10 renal and in the test with U251 CNS was > 100 µM in each case.
In the case of `Nc1ccc2c(c1)C(=O)C(=O)c1c-2nc2ccccn12`, the GI50 is 1.49 µM in the test with BT-549 breast; 1.06 µM in the test with MCF7 breast; 1.26 µM in the test with OVCAR-3 ovarian; 1.6 µM in the test with RXF 393 renal; 1.68 µM in the test with SK-MEL-2 melanoma; 1.08 µM in the test with SN12C renal. Further, the GI50 with SW-620 colon was 1.8 µM; in the test with TK-10 renal it was 15.3 µM; with U251 CNS, 1.28 µM. Moreover, the TGI worked out at 2.82 µM with BT-549 breast; 3.07 µM with MCF7 breast; 3.07 µM with OVCAR-3 ovarian; 2.99 µM in the test on RXF 393 renal; 3.7 µM with SK-MEL-2 melanoma; 2.48 µM in the test with SN12C renal. Further, the TGI was 3.83 µM in the test on SW-620 colon, 29.3 µM in the test on TK-10 renal and 2.58 µM in the test on U251 CNS.
Consider `C[C@@H]1COCCN1c1cc(C2([S@](C)(=N)=O)CC2)nc(-c2ccnc3[nH]ccc23)n1`, for which the GI50 is 1.83 µM and 2.92 µM with BT-549 breast; 0.417 µM and 0.611 µM in the test with MCF7 breast; 4.16 µM and 5.15 µM in the test with OVCAR-3 ovarian; 1.33 µM and 3.34 µM in the test with RXF 393 renal; 3.74 µM and 1.56 µM in the test on SK-MEL-2 melanoma; 5.04 µM and 9.13 µM with SN12C renal. In addition, the GI50 is 4.79 µM and > 10 µM with SW-620 colon; 3.69 µM and 1.68 µM with TK-10 renal; 9.81 µM and 5.08 µM with U251 CNS. Further, the TGI in the test on BT-549 breast was 27.7 µM and > 10 µM; in the test on MCF7 breast it was 39 µM and > 10 µM; in the test with OVCAR-3 ovarian, > 80.6 µM; with RXF 393 renal, 6.37 µM and > 10 µM; in the test on SK-MEL-2 melanoma, 26.2 µM and > 10 µM; in the test with SN12C renal, > 100 µM. Moreover, the TGI in the test with SW-620 colon is > 100 µM; with TK-10 renal it was > 59.7 µM; with U251 CNS it was > 100 µM.
Regarding `COc1cc(/C=C/c2ccncc2)cc(OC)c1OC`, the TGI in the test on OVCAR-3 ovarian is > 100 µM; in the test with RXF 393 renal, 99.2 µM; in the test with SN12C renal, > 100 µM; with SW-620 colon it was > 100 µM; in the test on TK-10 renal, > 100 µM; with U251 CNS, > 100 µM.
For `CC(C)(C)OC1=C(OC(C)(C)C)C(O)(c2ccccc2)C1=O` (configuration not stated), the TGI in the test with OVCAR-3 ovarian, in the test on RXF 393 renal, in the test on SN12C renal, with SW-620 colon, with TK-10 renal and in the test on U251 CNS was > 100 µM each time.
Take `COc1cc2c3c(n(CCCN)c(=O)c2cc1OC)-c1ccccc1C3=O`: the GI50 is 4.85 µM in the test on BT-549 breast; 0.316 µM in the test on MCF7 breast; 0.26 µM with OVCAR-3 ovarian; 1.04 µM with RXF 393 renal; 14.3 µM in the test on SK-MEL-2 melanoma; 0.934 µM in the test with SN12C renal. The results for the GI50 with SW-620 colon, in the test with TK-10 renal and in the test with U251 CNS were 1.89 µM, 2.14 µM and 0.557 µM, respectively. Also, the TGI in the test with BT-549 breast turned out to be 13.9 µM; in the test with MCF7 breast it was 2.11 µM; with OVCAR-3 ovarian, 4.2 µM; with RXF 393 renal, 2.56 µM; in the test on SK-MEL-2 melanoma, 35.5 µM; in the test on SN12C renal it was 5.08 µM. For the same compound, the TGI with SW-620 colon was > 100 µM; with TK-10 renal, 6.31 µM; in the test with U251 CNS it was 3.43 µM.
For `Cc1cccc(NC(=O)CCc2ccc(N3C(N)=NC(N)=NC3(C)C)cc2)c1`, the GI50 in the test with BT-549 breast was 10.9 µM; in the test on MCF7 breast, 1.24 µM; with OVCAR-3 ovarian, 6.76 µM; in the test with RXF 393 renal it was > 42.1 µM; in the test with SK-MEL-2 melanoma, > 33.6 µM; in the test with SN12C renal, 0.575 µM. Also, the GI50 in the test with SW-620 colon was 1.13 µM; with TK-10 renal, 18.2 µM; in the test on U251 CNS, 0.675 µM. Moreover, the concentration for total growth inhibition (TGI) with BT-549 breast, with MCF7 breast, with OVCAR-3 ovarian, in the test on RXF 393 renal, in the test on SK-MEL-2 melanoma and in the test on SN12C renal was > 100 µM in each case. Besides, the TGI in the test on SW-620 colon, with TK-10 renal and in the test with U251 CNS was > 100 µM in each case.
As to `N=C(N)c1ccc(OCc2cccc(COc3ccc(C(=N)N)cc3)c2)cc1`, the GI50 with BT-549 breast was 3.41 µM; with MCF7 breast it was 4.5 µM; with SK-MEL-2 melanoma, 24.2 µM; in the test with SN12C renal, 2.68 µM; with SW-620 colon, 5.64 µM; in the test with TK-10 renal, 7.61 µM. The GI50 in the test on U251 CNS was 3.73 µM. Also, the TGI in the test on BT-549 breast is 9.37 µM; in the test with MCF7 breast, 14.9 µM; in the test on SK-MEL-2 melanoma, > 100 µM; in the test on SN12C renal, 13.1 µM; with SW-620 colon it was 21.3 µM; in the test with TK-10 renal it was 21 µM. Also, the TGI with U251 CNS was found to be 17.2 µM.
